{"source": "patent US20200375929A1", "about": "“METHODS AND COMPOSITIONS FOR THE TREATMENT OF DISEASES ASSOCIATED WITH CANCER, INFLAMMATION, OR IMMUNE RESPONSE” (Washington University, priority 2017, published 2020)", "key": {"NFkB pathway": {"tested_on": "NFkB pathway", "experiment": "Canonical NFkB signaling in LPS-stimulated BMDMs (p65 translocation, IKK, IkBa)", "format": "cell-based, mouse", "description": "(§1) BMDM were prepared from 6- to 12-week-old mice as described 1 and cultured in RMPI-1640 medium supplemented with 10% fetal bovine serum (FBS), 2 mM L-glutamine, and 100 U/mL penicillin-streptomycin and mouse recombinant M-CSF ([…], Peprotech). For experiments, cells were seeded at concentration 10^6 cells/mL in tissue culture plates of various formats. The cells were treated with DI (250 μM (unless stated otherwise), cat #592498, Sigma), DMF (50 μM (unless stated otherwise), cat #242926, Sigma), 3-(ethoxycarbonyl)but-3-enoic acid (3MI, 5 μM, Aris Pharmaceuticals Inc.), 4-ethoxy-2-methylene-4-oxobutanoic acid (MI, Aris Pharmaceuticals Inc.) for 12 h and activated with lipopolysaccharide (LPS; 100 ng/mL; E. coli 0111:B4, Sigma) for 1 h or as indicated. In some experiments cells were stimulated with combination of LPS (20 ng/mL) and IFN-γ (50 ng/mL; Peprotech). In some experiments cells were treated with α-tocopherol (AT, 10 μM; Sigma), MitoTEMPO (MT, 500 μM; Sigma), N-acetylcysteine (NAC, 1 mM, Sigma), ethylester of GSH (EtGSH; 1 mM, Santa Cruz) or buthionene sulfoximine (BSO, 500 μM, Sigma) alone or in combination with DI for 12 h. […]\n(§2) Cells were lysed in RIPA Lysis Buffer System (Santa Cruz) and heat-denatured at 95° C. for 5 min in reducing sample buffer (BioRad). […] Non-specific binding was blocked with 5% skim milk (or 5% BSA when phospho-proteins were analyzed), and membranes were probed with primary antibodies specific to Nrf2 (#12721), HO-1 (#70081), IκBζ (mouse specific, #93726), IκBζ(#9244), ATF3 (#D2Y5W), IRAK1 (#4504; sensitivity of IRAK1 detection diminishes upon IRAK1 K63 ubiquitination), phospho-IKK (Ser176/180, #2697), p62/SQSTM1 (#5114), phospho-eIF2α (Ser51, #9721), eIF2α (#5324) from Cell Signaling; GAPDH (sc-25778), IκBα (sc-1643), ATF3 (sc-188), SDHA (sc-166909) from Santa Cruz; NQO1 (ab28947) from Abeam, followed by incubation with anti-rabbit-HRP (1:10,000; sc-2030) or anti-mouse-HRP (1:10,000; sc-2031) from Santa Cruz and Clarity western ECL substrate (Bio-Rad). […]"}, "Nrf2": {"tested_on": "Nrf2", "experiment": "Nrf2 response in BMDMs (western blot, target genes)", "format": "cell-based, mouse", "conditions": "12 h treatment", "description": "as §1, §2"}, "Nfkbiz mRNA": {"tested_on": "Nfkbiz mRNA", "experiment": "Nfkbiz (Ikb-ζ) mRNA expression in BMDMs (qPCR)", "format": "cell-based, mouse", "conditions": "DI 12 h, then LPS", "description": "as §1\nRNA from cultured cells was isolated using a Total RNA I kit (OMEGA). […] Threshold cycle (CT) values for each sample were determined by automated threshold analysis. […]"}, "Regnase-1": {"tested_on": "Regnase-1", "experiment": "Regnase-1 protein levels in BMDMs (western blot)", "format": "cell-based, mouse", "conditions": "unstimulated macrophages, DI", "description": "BMDM were prepared from 6- to 12-week-old mice as described 1 and cultured in RMPI-1640 medium supplemented with 10% fetal bovine serum (FBS), 2 mM L-glutamine, and 100 U/mL penicillin-streptomycin and mouse recombinant M-CSF ([…], Peprotech). For experiments, cells were seeded at concentration 10^6 cells/mL in tissue culture plates of various formats. […]\nas §2"}, "[1]": {"tested_on": "IκBζ target genes (Defb4, S100a7a, Lcn2, S100a9)", "experiment": "IκBζ target gene expression in IL-17A-stimulated mouse keratinocytes (qPCR)", "format": "cell-based", "conditions": "DI 12 h, IL-17A 4 h", "description": "RNA from cultured cells was isolated using a Total RNA I kit (OMEGA). RNA from mouse ear skin was extracted using RNAeasy mini kit (Qiagen) after tissue disruption with sterile zirconium beads on a MagNA Lyser (Roche). Isolated RNA was reverse transcribed using AffinityScript Multi-Temp reverse transcriptase (Agilent Technologies) according to the manufacturer's protocol. Reactions were performed in 96-well plates using a SYBR Green PCR Master mix (Thermo Fisher Scientific) using a LightCycler® 96 or LightCycler® 480 (Roche Diagnostics). All assays were performed at least in duplicates, and reaction mixtures in 20 μL volumes (96-plate) or 10 μL volumes (384-plate) were processed under the following cycling conditions: initial 10 min denaturation at 95° C., followed by 40 cycles at 95° C. for 10 s, 60° C. for 1 min. Threshold cycle (CT) values for each sample were determined by automated threshold analysis. Expression levels of all mRNAs were normalized to reference gene Actb in BMDMs or to Rpl19 in mouse keratinocytes and tissue samples; to ACTB in human blood monocytes or RPLP0 in human keratinocytes. The relative increase in the expression level of a gene was normalized to the level of expression in unstimulated control cells in each experiment. IκBζ-dependent genes selected for analysis in macrophages were previously published. […]"}, "HBL1 cells line (ABC)": {"tested_on": "HBL1 cells line (ABC)", "experiment": "DLBCL cell viability, resazurin assay, ABC subtype", "format": "cell-based", "conditions": "HBL1, 4 days, refreshed daily; DI 125-250 μM"}}, "note": "“Also recorded” adds a separate entry of the source."}
{"smiles": "C=C(CC(=O)OC)C(=O)OC", "note": "[DI, dimethyl itaconate]", "values": [{"measurement": "p65 nuclear translocation upon LPS", "setting": "NFkB pathway; BMDMs, DI 250 μM 12 h, LPS", "value": "does not inhibit nuclear translocation of p65; also recorded: nor did it prevent LPS-mediated p65 nuclear translocation"}, {"measurement": "IκBα degradation in response to LPS", "setting": "NFkB pathway; BMDMs, DI, LPS", "value": "did not inhibit IκBα degradation"}, {"measurement": "canonical NFkB response", "setting": "NFkB pathway; DI at concentrations effective to inhibit IL6, p65 translocation, IKK activation, IkBa degradation", "value": "not affected"}, {"measurement": "Nrf2 response (Nrf2 protein, target genes)", "setting": "Nrf2", "value": "triggered strong Nrf2 response; also recorded: increased"}, {"measurement": "Ikb-ζ (Nfkbiz) mRNA level", "setting": "Nfkbiz mRNA", "value": "only moderate effect; also recorded: not changed"}, {"measurement": "Regnase-1 protein", "setting": "Regnase-1", "value": "up-regulated Regnase-1"}, {"measurement": "expression of IκBζ target genes", "setting": "[1]", "value": "downregulated"}, {"measurement": "growth / toxicity, ABC DLBCL", "setting": "HBL1 cells line (ABC)", "value": "selective toxicity towards ABC"}]}
